In article doi:10.1101/2025.07.28.667221, “Pentilludin reduces rat amphetamine and remifentail self-administration with good pharmacologic and toxicologic profiles” (bioRxiv, 2025):
Entries after “also recorded” stand apart in the source; their conditions may differ. Read-outs that look alike come from different tables or passages of the source.

Tests used:
mice [1] = system: mice; set-up: method as in PMID 30348770; details: cited from earlier work
mice [2] = system: mice; set-up: method as in PMID 30348770; details: cited from earlier work; remark: listed apart in the source
mice [3] = details: cited from earlier work
Ames test = assay: Ames test; format: cell-based; details: in vitro
micronucleus test = assay: micronucleus test; format: cell-based; details: in vitro
hERG channels = hERG channels (Homo sapiens, UniProt Q12809); assay: hERG channel activity; details: in vitro
Chain of hERG channels (Q12809 whole entry): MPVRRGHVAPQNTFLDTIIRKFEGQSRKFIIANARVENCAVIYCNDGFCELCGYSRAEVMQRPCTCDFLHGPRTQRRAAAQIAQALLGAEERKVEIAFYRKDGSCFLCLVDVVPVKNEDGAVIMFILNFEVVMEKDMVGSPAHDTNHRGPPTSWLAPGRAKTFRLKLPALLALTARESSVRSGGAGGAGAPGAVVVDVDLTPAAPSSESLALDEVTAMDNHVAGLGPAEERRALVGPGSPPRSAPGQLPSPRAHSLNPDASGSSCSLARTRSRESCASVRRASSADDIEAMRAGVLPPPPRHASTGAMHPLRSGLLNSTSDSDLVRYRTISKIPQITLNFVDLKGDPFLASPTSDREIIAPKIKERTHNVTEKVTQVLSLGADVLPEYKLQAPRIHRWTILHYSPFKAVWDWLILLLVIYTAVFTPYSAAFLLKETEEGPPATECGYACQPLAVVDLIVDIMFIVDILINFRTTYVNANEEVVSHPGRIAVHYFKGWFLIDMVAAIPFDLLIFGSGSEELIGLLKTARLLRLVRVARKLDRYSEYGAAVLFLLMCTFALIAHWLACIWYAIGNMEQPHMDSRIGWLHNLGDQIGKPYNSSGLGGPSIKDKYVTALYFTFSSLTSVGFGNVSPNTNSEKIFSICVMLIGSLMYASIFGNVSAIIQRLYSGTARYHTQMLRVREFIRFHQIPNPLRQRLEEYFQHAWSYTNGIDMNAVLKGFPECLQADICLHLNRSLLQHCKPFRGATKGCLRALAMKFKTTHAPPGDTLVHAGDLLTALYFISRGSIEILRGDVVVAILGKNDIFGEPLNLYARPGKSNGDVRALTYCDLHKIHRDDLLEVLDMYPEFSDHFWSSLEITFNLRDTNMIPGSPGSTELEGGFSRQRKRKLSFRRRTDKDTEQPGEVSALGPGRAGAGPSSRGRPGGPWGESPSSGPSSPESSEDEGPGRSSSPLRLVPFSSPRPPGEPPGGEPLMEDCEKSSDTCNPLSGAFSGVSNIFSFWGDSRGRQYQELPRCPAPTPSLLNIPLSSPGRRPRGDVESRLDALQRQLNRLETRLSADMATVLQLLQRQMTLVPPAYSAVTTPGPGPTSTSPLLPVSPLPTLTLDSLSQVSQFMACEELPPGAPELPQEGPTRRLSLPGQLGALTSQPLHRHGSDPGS

[4] = Solubility in dosing vehicles; format: physicochemical; details: read-out: soluble at concentrations up to
Experimental: Pentilludin powder was >97.5% pure following synthesis and when reanalyzed (Certificate of Analysis, GLP) 1 ½ and 2 ½ years after synthesis. Pentilludin was soluble in 6.82% Captisol in 60:40 PEG600/water (the vehicle used for initial toxicology experiments) and in PEG600 (the vehicle used for self-administration and Good Laboratory Practices testing) at concentrations up to 100 mg/ml with gentle heating.

[5] = Plasma pentilludin levels after acute 20 mg/kg iv or po administration; format: in vivo; details: rat
Experimental: Proteins in 50 μL plasma collected with K2EDTA as anti-coagulant were precipitated by adding 5 μL of acetonitrile with 0.5% v/v ascorbate, 200 μL of acetonitrile containing 20 ng/ml tolbutamide internal standard with 0.5% ascorbate was added, the mixture was vortexed for 1 min, centrifuged @ 4000 rpm for 15 mins and peaks in 8 μL of the supernatant were identified using an AB Sciex Triple Quad 5500 LC-MS/MS (electrospray, negative ions, Analyst 1.6.3 software) and a Waters Acquity Ultra Performance LC System with 50 × 2.1 mm Acuity UPLC Beh C18 1.7 μm column eluted for 2.5 min @ 22°C @ 0.5 ml/min with Mobile Phase A (5mM NH4OAc in water with 0.05% formic acid) and mobile phase B (acetonitrile with 0.1% formic acid) with changes in % A as follows: 60, 10, 5, and 60. Standards were quantitated at concentrations ranging from 1– 2000 ng/mL.

[6] = system: rats trained to self-administer amphetamine iv; assay: Amphetamine self-administration; format: in vivo; details: rat
Experimental: (§1) Young adult Sprague-Dawley rats (Charles River Laboratories, Raleigh, NC, USA) were singly housed on a reverse 12:12 day night cycle and tested during their active (dark) phase in studies approved by the Duke Institutional Animal Care and Use Committee. Rats had catheters surgically implanted in their jugular veins to provide access for self-administration by IV infusion. Briefly, rats were anesthetized with i.p. injections of ketamine (Fort Dodge Animal Health, Fort Dodge, IA, USA; […]) with the addition of Dexdomitor (Pfizer, New York, NY, USA; 0.15 mg/kg) which is a sedative and analgesic agent. Before surgery, ketoprofen (5 mg/kg, s.c.) was administered to reduce post-operative pain and inflammation. A plastic SoloPort was attached intraoperatively to a polyurethane catheter and inserted into a subcutaneous interscapular pocket and sutured to underlying fascia.
(§2) The day following surgery, the rats began self-administration sessions with amphetamine (0.1 mg/kg/infusion, iv) or remifentanil (0.3 μg/kg/infusion, iv) as reinforcers. […] Each infusion was followed by a 20-sec timeout in which the house light goes on and cue light goes out. Responses were recorded but not reinforced during this interval. […] There were five sessions of training for self-administration before the onset of pentilludin drug treatment sessions. All of the animals had the same number of training sessions to provide all with equal testing history. Each infusion session lasted for one hour. Animals were tested not more than once/day between 9 AM and 4 PM.
(§3) At the end of each study catheter patency was confirmed by assessing sedation following methohexital (brevital) administration through the catheter. […] Self-administration results, differences from baseline levels, were assessed for statistical for significance with analysis of variance. To control for baseline differences in self-administration, the self-administration with pentilludin or vehicle treatment was analyzed as a difference from each animal’s self-administration on the last two sessions of baseline training. […]

[7] = system: rats trained to self-administer remifentanil iv; assay: Remifentanil self-administration; format: in vivo; details: rat
Experimental: as §1, §2, §3

rats = assay: Lever pressing for self-administration of food pellets; format: in vivo; details: rat, eight sessions of testing
dogs = assay: Two week oral dosing in dogs, kidney pathology; format: in vivo, dog; details: 15 mg/kg/d po for two weeks
[8] = Metabolism in rat liver microsomes; format: in vitro ADME
[9] = Metabolism in human liver microsomes; format: in vitro ADME
Metabolism in rat plasma = format: in vitro ADME
[10] = Metabolism in human plasma; format: in vitro ADME
recombinant paraoxonase = assay: Interaction with recombinant paraoxonase; format: in vitro ADME; details: initial work
[11] = target: receptor type protein tyrosine phosphatase D (PTPRD); set-up: method as in PMID 34863978; details: likely irreversible; read-out: potency in inhibiting PTPRD's phosphatase; cited from earlier work
[12] = system: receptor type protein tyrosine phosphatase S (PTPRS); set-up: method as in PMID 35636503; details: cited from earlier work
[13] = system: receptor type protein tyrosine phosphatase F (PTPRF); set-up: method as in PMID 35636503; details: cited from earlier work
[14] = system: receptor type protein tyrosine phosphatase J (PTPRJ); set-up: method as in PMID 35636503; details: cited from earlier work
[15] = system: nonreceptor type protein tyrosine phosphatase 1 (PTPN1/ PTP1B); set-up: method as in PMID 35636503; details: cited from earlier work
[16] = system: targets of the NIDA-EUROFINS assays (virtually all targets of currently marketed drugs); set-up: method as in PMID 34863978; details: cited from earlier work
[17] = Repeated two week daily oral administration toxicity (observational battery, weight, chemistry, hematology, histopathology); details: rat
[18] = 20 mg/kg sc prior to every other session, 20 mg/kg

CCCCOc1cc2c(c(C=O)c1OC)CC(O)OC2=O (stereo not drawn) [7-BIA]
stimulant reward, cocaine conditioned place preference (mice [1]): reduces stimulant reward
stimulant reward, cocaine self-administration (mice [2]): reduces stimulant reward
toxicity on weeks-long repeated treatments (mice [3]): little evidence for toxicity

COc1c(OCC2CCCC2)cc2c(c1C=O)CC(O)OC2=O (stereo not drawn) [Pentilludin]
activity in Ames test (Ames test): no in vitro activities
activity in micronucleus test (micronucleus test): no in vitro activities
activity at hERG channels (hERG channels): no in vitro activities
solubility ([4]; 6.82% Captisol in 60:40 PEG600/water (dosing vehicle), 6.82% Captisol in 60:40 PEG600/water, gentle heating): ≤ 100 mg/mL
solubility ([4]; PEG600 (dosing vehicle), PEG600, gentle heating): ≤ 100 mg/mL
bioavailability ([5]; plasma, po, 20 mg/kg, data from 0.5 to 4h, read-out: bioavailability for po pentilludin in PEG600): 15%
concentration at 0.08 h ([5]; plasma, IV 20.0 mg/kg, 0.08 h): 62200 ng/mL
concentration at 0.5 h ([5]; plasma, IV 20.0 mg/kg, 0.50 h): 2920 ng/mL
concentration at 4 h ([5]; plasma, IV 20.0 mg/kg, 4.0 h): 4.98 ng/mL
concentration at 0.5 h ([5]; plasma, PO 20.0 mg/kg in PEG600, 0.50 h): 449 ng/mL
concentration at 2 h ([5]; plasma, PO 20.0 mg/kg in PEG600, 2.0 h): 146 ng/mL
concentration at 4 h ([5]; plasma, PO 20.0 mg/kg in PEG600, 4.0 h): 17.1 ng/mL
terminal half-life of plasma pentilludin ([5]; 20 mg/kg): between one and two
signs of gross toxicity ([5]; acute 20 mg/kg): no signs of gross toxicity
reduction of amphetamine self-administration overall relative to controls ([6]; 20 mg/kg sc prior to every other session, 12 sessions): 6.2 infusions per session
effect on amphetamine self-administration [6, 18]: substantially reduces; also recorded: robustly reduced
decrease of amphetamine self-administration from last acquisition sessions ([6]; 20 mg/kg sc, last two of 12 sessions): 23%
effect on remifentanil self-administration [7, 18]: more modestly reduces; also recorded: significantly attenuated the increase
smaller increase in remifentanil self-administration relative to vehicle-treated controls ([7]; 20 mg/kg sc, 11th and 12th sessions): 26.5%
responding on the control lever ([7]; remifentanil self-administration): did not differ
food pellets per one-hour session (rats): 85.6 ± 6.3 food pellets
kidney pathology (dogs): fail to display any kidney pathology
metabolism [8]: only modest metabolism
metabolism [9]: only modest metabolism
metabolism (Metabolism in rat plasma): robust metabolism
metabolism [10]: robust metabolism
interaction with recombinant paraoxonase (recombinant paraoxonase): interacts avidly
IC50 [11]: 690 nM
potency at PTPRS [12]: some potency
potency at PTPRF [13]: some potency
potency at PTPRJ [14]: less potency
potency at PTPN1/ PTP1B [15]: less potency
IC50 [16]: ≥ 100000 nM
activity at targets for currently-licensed drugs ([16]; in vitro): no in vitro activities
oral intake and weight (mice [3]; daily ≥ 150 mg/kg po): reduce oral intake and lose weight starting on about the 4th day
toxicity on weeks-long repeated treatments (mice [3]; pentilludin doses up to 100 mg/kg/d po): little evidence for toxicity
weight loss (mice [3]; repeated doses of 100 mg/kg/day): no weight loss
serum chemistry abnormalities in measures relating to renal function ([17]; 150 mg/kg/d): no serum chemistry abnormalities
proteinuria ([17]; 150 mg/kg/d po two weeks, 150 mg/kg/day): proteinuria in rats treated with 150 mg/kg/d that recovered within two weeks of the end of pentilludin administration; also recorded: modest and reversible proteinuria
effects on the observational battery, weight, plasma chemistries or hematological assessments ([17]; 50 or 75 mg/kg po daily in PEG600, two weeks): no significant effects
kidney histopathology ([17]; daily doses for two weeks, also found with vehicle): basophilic lesions in the kidneys of a number of the rats
alterations in serum chemistries related to renal function ([17]; doses up to 100 mg/kg/d): None of the rats treated with doses up to 100 mg/kg/d displayed alterations
behavioral, hematologic or serum chemistry abnormalities ([17]; doses up to 100 mg/kg/day for two weeks): have not been found to display behavioral, hematologic or serum chemistry abnormalities
effects on histopathology ([17]; good laboratory practices toxicology study, 50 or 75 mg/kg/d po two weeks): no pentilludin-associated effects detected
effect on plasma chemistry, hematology and behavioral observation batteries ([17]; good laboratory practices work): lack of effect
